# Laboratory results from patent US20240270821A1, “GIP/GLP1/GCG TRI-RECEPTOR AGONISTS AND USES THEREOF” (priority 2023, published 2024).
# Like-named read-outs stand apart in the source and are kept apart here. Starred links: 1 amine or outer side, 2 acyl side, 3 side chain; linkers in the order of their positions; H or OH if unused. Non-standard residues stand in square brackets, D forms with d. Residues, ends and D or L forms follow the SMILES beside them. Groups on a side chain read outwards from the residue. No end group written: not given here. *: point of attachment. C20 diacid = O=C(O)CCCCCCCCCCCCCCCCCCC(=O)*; C18 diacid = O=C(O)CCCCCCCCCCCCCCCCC(=O)*; Phe(4-CN) = N#Cc1ccc(C[C@H](N)C(=O)O)cc1; αMePhe(2-F) = C[C@](N)(Cc1ccccc1F)C(=O)O; γGlu = O=C(O)[C@H](CCC(=O)[*:2])N[*:1]; αMe4Pal = C[C@](N)(Cc1ccncc1)C(=O)O; αMeY = C[C@](N)(Cc1ccc(O)cc1)C(=O)O; 4Pal = N[C@@H](Cc1ccncc1)C(=O)O; Aad = N[C@@H](CCCC(=O)O)C(=O)O; αMeL = CC(C)C[C@](C)(N)C(=O)O; αMeS = C[C@](N)(CO)C(=O)O; Orn = NCCC[C@H](N)C(=O)O; AEEA = NCCOCCOCC(=O)O; Aib = CC(C)(N)C(=O)O
# What was measured:
# Assay type in all cases: cell-based
# hGLP-1R [1] = molecular target: T1, hGLP-1R (Homo sapiens, UniProt P43220); assay: Functional cAMP activity in the presence of 1% HSA; conditions: read-out: cAMP Rel EC50, hGLP-1R
# hGcgR = hGcgR (Homo sapiens, UniProt P47871); assay: Functional cAMP activation in the presence of 0.1% casein (no HSA); conditions: read-out: Relative cAMP EC50, hGcgR;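 note: intracellular cAMP rise after 30 min at 37 °C, read by HTRF against a cAMP standard curve, scaled from buffer only (0%) to maximal control ligand response (100%)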
# hGIPR [2] = molecular target: T2, hGIPR (Homo sapiens, UniProt P48546); assay: as above; conditions: read-out: Relative cAMP EC50, hGIPR;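 note: intracellular cAMP rise after 30 min at 37 °C read by HTRF against a standard curve, scaled between buffer alone (0%) and top control ligand concentration (100%), four-parameter fit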
# T2 sequence (P48546 22-466): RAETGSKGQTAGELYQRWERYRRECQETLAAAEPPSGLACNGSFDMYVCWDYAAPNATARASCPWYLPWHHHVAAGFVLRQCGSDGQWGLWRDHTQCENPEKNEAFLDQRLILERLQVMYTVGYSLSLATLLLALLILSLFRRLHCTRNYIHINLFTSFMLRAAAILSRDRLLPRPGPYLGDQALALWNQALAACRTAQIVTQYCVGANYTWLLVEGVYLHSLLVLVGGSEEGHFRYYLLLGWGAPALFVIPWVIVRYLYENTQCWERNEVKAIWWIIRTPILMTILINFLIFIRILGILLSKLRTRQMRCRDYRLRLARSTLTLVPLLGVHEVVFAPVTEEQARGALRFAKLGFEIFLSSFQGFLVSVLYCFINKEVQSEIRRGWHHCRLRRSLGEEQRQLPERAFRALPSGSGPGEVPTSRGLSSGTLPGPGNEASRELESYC
# human GcgR = human GcgR (Homo sapiens, UniProt P47871); assay: Functional cAMP activity in the presence of 1% HSA; conditions: read-out: cAMP Rel EC50, hGcgR
# hGLP-1R [3] = molecular target: T1, hGLP-1R; assay: Functional cAMP activation in the presence of 0.1% casein (no HSA); conditions: read-out: Relative cAMP EC50, hGLP-1R;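 for Relative cAMP EC50, hGIPR: intracellular cAMP rise after 30 min at 37 °C read by HTRF against a standard curve, scaled between buffer alone (0%) and top control ligand concentration (100%), four-parameter fit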;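 for Relative cAMP EC50, hGLP-1R: intracellular cAMP rise after 30 min at 37 °C read by HTRF, normalized between buffer only (0%) and maximal control ligand (100%), four-parameter variable-slope fit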
# hGIPR [4] = molecular target: T2, hGIPR; assay: Functional cAMP activity in the presence of 1% HSA; conditions: read-out: cAMP Rel EC50, hGIPR
# [5] = in the presence of 0.1% casein (no HSA), geometric mean
# Chain of human GcgR (P47871 26-477): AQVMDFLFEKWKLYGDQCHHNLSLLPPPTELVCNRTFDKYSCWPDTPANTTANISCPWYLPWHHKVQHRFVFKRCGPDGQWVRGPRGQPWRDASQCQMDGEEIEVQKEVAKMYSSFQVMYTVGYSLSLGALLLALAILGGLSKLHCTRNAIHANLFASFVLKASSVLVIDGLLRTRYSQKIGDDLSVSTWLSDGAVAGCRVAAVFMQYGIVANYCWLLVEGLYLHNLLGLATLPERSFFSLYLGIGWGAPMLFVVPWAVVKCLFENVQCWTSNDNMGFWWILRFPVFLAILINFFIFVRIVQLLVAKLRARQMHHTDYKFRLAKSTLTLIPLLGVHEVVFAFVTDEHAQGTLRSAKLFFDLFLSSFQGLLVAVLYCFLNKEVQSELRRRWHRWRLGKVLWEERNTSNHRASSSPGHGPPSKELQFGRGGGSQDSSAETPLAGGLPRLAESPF
# Chain of hGcgR (P47871 26-477): as above
# T1 sequence (P43220 24-463): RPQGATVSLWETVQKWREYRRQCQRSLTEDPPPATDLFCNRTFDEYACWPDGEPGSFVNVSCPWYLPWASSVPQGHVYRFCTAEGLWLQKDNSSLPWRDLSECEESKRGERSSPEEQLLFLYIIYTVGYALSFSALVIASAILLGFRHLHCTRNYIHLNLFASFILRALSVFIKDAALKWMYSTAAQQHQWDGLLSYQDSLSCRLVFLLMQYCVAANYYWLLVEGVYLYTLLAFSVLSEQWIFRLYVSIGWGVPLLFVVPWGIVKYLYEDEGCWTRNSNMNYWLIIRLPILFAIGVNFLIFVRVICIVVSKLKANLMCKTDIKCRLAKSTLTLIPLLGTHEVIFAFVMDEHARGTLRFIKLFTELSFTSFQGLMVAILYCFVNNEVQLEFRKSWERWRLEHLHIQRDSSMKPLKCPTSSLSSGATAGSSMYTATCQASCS
Compound,EC50 (hGLP-1R [1]) [nM],EC50 (hGcgR) [nM],EC50 (hGIPR [2]) [nM],EC50 (human GcgR) [nM],EC50 (hGLP-1R [3]) [nM],EC50 (hGIPR [4]) [nM],EC50 (hGcgR; [5]) [nM],EC50 (hGIPR [2]; [5]) [nM],EC50 (hGLP-1R [3]; [5]) [nM]
CC[C@H](C)[C@H](NC(=O)[C@H](Cc1ccccc1)NC(=O)[C@H](C)NC(=O)C(C)(C)NC(=O)[C@H](CCC(N)=O)NC(=O)[C@H](C)NC(=O)[C@H](CCCCNC(=O)COCCOCCNC(=O)CC[C@H](NC(=O)CCCCCCCCCCCCCCCCC(=O)O)C(=O)O)NC(=O)[C@H](CCCCN)NC(=O)[C@H](CC(=O)O)NC(=O)[C@H](CC(C)C)NC(=O)[C@H](CC(C)C)NC(=O)[C@@H](NC(=O)[C@H](CO)NC(=O)[C@H](Cc1ccc(O)cc1)NC(=O)[C@H](CC(=O)O)NC(=O)[C@H](CO)NC(=O)[C@@H](NC(=O)[C@](C)(Cc1ccccc1F)NC(=O)[C@@H](NC(=O)CNC(=O)[C@H](CCC(N)=O)NC(=O)C(C)(C)NC(=O)[C@@H](N)Cc1ccc(O)cc1)[C@@H](C)O)[C@@H](C)O)[C@@H](C)CC)C(=O)N[C@@H](CCC(=O)O)C(=O)N[C@@H](Cc1ccc(O)cc1)C(=O)N[C@@H](CC(C)C)C(=O)N[C@@H](CCC(=O)O)C(=O)N[C@@H](CCC(=O)O)C(=O)NCC(=O)NCC(=O)N1CCC[C@H]1C(=O)N[C@@H](CO)C(=O)N[C@@H](CO)C(=O)NCC(=O)N[C@@H](CCC(=O)O)C(=O)N1CCC[C@H]1C(=O)N1CCC[C@H]1C(=O)N1CCC[C@H]1C(=O)N[C@@H](CO)C(N)=O [Example 407],37.2,1.49,0.0362,485,0.259,11.7,,,
H-Y[Aib]QGT[αMePhe(2-F)]TSD[4Pal][αMeS]I[αMeL]LD[Orn]K([γGlu-γGlu-C18 diacid])AQ[Aib][Orn]FI[dE][αMeY]LSEGGPSSGEPPPSGGE-NH2 [Example 559],49.7,4.07,0.119,323,0.542,9.15,,,
H-Y[Aib]QGT[αMePhe(2-F)]TSD[4Pal][αMeS]I[αMeL]LD[Orn]K([AEEA-γGlu-C18 diacid])AQ[Aib][Orn]FIEYLIEAGPSSGEPPPEEG-NH2 [Example 484],16,3.99,0.0152,204,0.201,1.59,,,
H-Y[Aib]QGTFTSD[4Pal]SQ[αMeL]LD[Orn]K([dE-γGlu-C18 diacid])AQ[αMe4Pal]QFIE[αMeY]LLAGGPSSGAPPPSGSEEE-NH2 [Example 1084],761,,,1390,,17.2,11.5,0.0975,10.3
Y[Aib]QGT[αMePhe(2-F)]TSD[4Pal]SILLDKK([γGlu-γGlu-C18 diacid])AQ[Aib]AFIEWLQEGGPSSGAPPPSGTEE-NH2 [Example 578],54.7,6.26,0.0208,781,0.233,3.73,,,
H-Y[Aib]QGTFTSDFS[Orn][αMeL]LDKK([AEEA-γGlu-γGlu-C18 diacid])AQ[Aib]AFIEYLLE[Aib]GHSSGAPPPSGS-NH2 [Example 243],610,,,711,,12.1,6.86,0.178,6.46
H-Y[Aib]QGTFTSDFS[Orn][αMeL]LDKK([AEEA-γGlu-C18 diacid])AQ[Aib]AFIEWLLEGGSSSGAPPPSGH-NH2 [Example 270],658,,,1060,,36.5,5,0.26,3.2
H-Y[Aib]QGT[αMePhe(2-F)]TSD[4Pal][αMeS]I[αMeL]LD[Orn]K([AEEA-γGlu-C18 diacid])AQ[αMe4Pal]EFI[dE][αMeY]LVEGGPSSGEPPPEGE-NH2 [Example 1159],64.1,,,238,,1.29,1.86,0.0118,0.45
H-Y[Aib]QGT[αMePhe(2-F)]TSD[Phe(4-CN)]SKLLDKIAQK([AEEA-γGlu-C20 diacid])AFIEYLIEGGPSSGAPPPSGS-NH2 [Example 363],217,,,4080,,91.8,13.6,0.375,1.47
CC[C@H](C)[C@H](NC(=O)[C@H](CO)NC(=O)[C@H](Cc1ccc(O)cc1)NC(=O)[C@H](CC(=O)O)NC(=O)[C@H](CO)NC(=O)[C@@H](NC(=O)[C@](C)(Cc1ccccc1F)NC(=O)[C@@H](NC(=O)CNC(=O)[C@H](CCC(N)=O)NC(=O)C(C)(C)NC(=O)[C@@H](N)Cc1ccc(O)cc1)[C@@H](C)O)[C@@H](C)O)C(=O)N[C@@H](CC(C)C)C(=O)N[C@@H](CC(C)C)C(=O)N[C@@H](CC(=O)O)C(=O)N[C@@H](CCCCN)C(=O)N[C@@H](CCCCNC(=O)CC[C@H](NC(=O)CC[C@H](NC(=O)CCCCCCCCCCCCCCCCC(=O)O)C(=O)O)C(=O)O)C(=O)N[C@@H](C)C(=O)N[C@@H](CCC(N)=O)C(=O)NC(C)(C)C(=O)N[C@@H](CCCC(=O)O)C(=O)N[C@@H](Cc1ccccc1)C(=O)N[C@H](C(=O)N[C@@H](CCC(=O)O)C(=O)N[C@@H](Cc1ccc(O)cc1)C(=O)N[C@@H](CC(C)C)C(=O)N[C@@H](CCC(=O)O)C(=O)N[C@@H](CCC(=O)O)C(=O)NCC(=O)NCC(=O)N1CCC[C@H]1C(=O)N[C@@H](CO)C(=O)N[C@@H](CO)C(=O)NCC(=O)N[C@@H](C)C(=O)N1CCC[C@H]1C(=O)N1CCC[C@H]1C(=O)N1CCC[C@H]1C(=O)N[C@@H](CO)C(N)=O)[C@@H](C)CC [Example 415] (H-Y[Aib]QGT[αMePhe(2-F)]TSDYSILLDKK([γGlu-γGlu-C18 diacid])AQ[Aib][Aad]FIEYLEEGGPSSGAPPPS-NH2),52.6,8.64,0.0496,1090,0.38,28.9,,,
CC[C@H](C)[C@H](NC(=O)[C@H](Cc1ccccc1)NC(=O)[C@H](CC(N)=O)NC(=O)C(C)(C)NC(=O)[C@H](CCC(N)=O)NC(=O)[C@H](C)NC(=O)[C@H](CCCCNC(=O)CC[C@H](NC(=O)CC[C@H](NC(=O)CCCCCCCCCCCCCCCCC(=O)O)C(=O)O)C(=O)O)NC(=O)[C@H](CCCN)NC(=O)[C@H](CC(=O)O)NC(=O)[C@H](CC(C)C)NC(=O)[C@](C)(CC(C)C)NC(=O)[C@@H](NC(=O)[C@](C)(CO)NC(=O)[C@H](Cc1ccncc1)NC(=O)[C@H](CC(=O)O)NC(=O)[C@H](CO)NC(=O)[C@@H](NC(=O)[C@](C)(Cc1ccccc1F)NC(=O)[C@@H](NC(=O)CNC(=O)[C@H](CCC(N)=O)NC(=O)C(C)(C)NC(=O)[C@@H](N)Cc1ccc(O)cc1)[C@@H](C)O)[C@@H](C)O)[C@@H](C)CC)C(=O)N[C@H](CCC(=O)O)C(=O)N[C@@](C)(Cc1ccc(O)cc1)C(=O)N[C@@H](CC(C)C)C(=O)N[C@@H](CCC(N)=O)C(=O)N[C@@H](CCC(=O)O)C(=O)NCC(=O)NCC(=O)N1CCC[C@H]1C(=O)N[C@@H](CO)C(=O)N[C@@H](CO)C(=O)NCC(=O)N[C@@H](CCC(=O)O)C(=O)N1CCC[C@H]1C(=O)N1CCC[C@H]1C(=O)N1CCC[C@H]1C(=O)N[C@@H](CCC(=O)O)C(N)=O [Example 450] (H-Y[Aib]QGT[αMePhe(2-F)]TSD[4Pal][αMeS]I[αMeL]LD[Orn]K([γGlu-γGlu-C18 diacid])AQ[Aib]NFI[dE][αMeY]LQEGGPSSGEPPPE-NH2),18.4,4.84,0.0448,553,0.43,3.75,,,
H-Y[Aib]QGTFTSDFS[Orn][αMeL]LDKK([AEEA-γGlu-C18 diacid])AQ[Aib]AFIEYLIE[Aib]SPSSGAPPPSGS-NH2 [Example 804],161,,,2310,,17.6,11.5,0.0751,0.915
H-Y[Aib]QGTFTSDFS[Orn][αMeL]LDKK([AEEA-γGlu-C18 diacid])AQ[Aib]AFIEWLLEGGHSSGAPPPSGH-NH2 [Example 269],428,,,1100,,21.9,7.69,0.288,3.23
